This is an account of results in patent US9708336B2, “Metallo-beta-lactamase inhibitors” (priority 2014, dated 2017).

Read-outs that look alike come from different tables or passages of the source.

The target of one experiment is VIM-1 (Pseudomonas aeruginosa (strain ATCC 15692 / DSM 22644 / CIP 104116 / JCM 14847 / LMG 12228 / 1C / PRS 101 / PAO1), UniProt A0A0F7KYQ8). Description: Enzyme activity: determination of IC50, fluorescence assay with CCF2-FA substrate (VIM-1). It is filed as biochemical. The following applies: CCF2-FA substrate.
For experiment [1], the system named is Serratia marcescens expressing IMP-1 (CL5741). The experiment is described as follows: Antibiotic potentiation activity: synergistic concentration (MITC95) with imipenem, OD600 growth. It is filed as cell-based. The note with it: Serratia marcescens CL5741 (IMP-1), 95% growth inhibition. The essentials: (§1)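 CLB30005 was precultured on Mueller Hinton agar with 8 ug/ml imipenem, the other strains on trypticase soy agar with 5% sheep blood, overnight at 35 °C. Saline suspensions diluted 1:100 in 1.1× CAMHB received compound and 4 μg/ml imipenem, then 22–24 h at 35 °C before absorbance reading.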

The test system of experiment [2] is Escherichia coli expressing NDM-1 (CLB30016). The description is as above. The following applies: (CLB30016, NDM-1), 95% growth inhibition. It counts as cell-based. Put shortly:
as §1

Experiment [3] concerns Klebsiella pneumoniae expressing VIM-1 (IHMA599644). The description is as above. It is filed as cell-based. The following applies: Klebsiella pneumoniae IHMA599644 (VIM-1), 95% growth inhibition. Put shortly: as §1
The next experiment deals with IMP-1 (Serratia marcescens, UniProt P52699). Description: biochemical. It counts as biochemical. The following applies: IMP-1 enzyme, CCF2-FA substrate; read-out: IMP-1 IC50.
Sequence of IMP-1 (P52699 whole entry, looked up): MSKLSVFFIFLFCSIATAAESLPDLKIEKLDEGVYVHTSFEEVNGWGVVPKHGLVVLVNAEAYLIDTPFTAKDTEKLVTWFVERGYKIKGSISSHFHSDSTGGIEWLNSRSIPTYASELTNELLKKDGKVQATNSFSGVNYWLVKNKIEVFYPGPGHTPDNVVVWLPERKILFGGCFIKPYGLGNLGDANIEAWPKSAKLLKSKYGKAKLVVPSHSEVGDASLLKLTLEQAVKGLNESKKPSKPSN
The target of another experiment is NDM-1 (Klebsiella pneumoniae, UniProt C7C422). Description: biochemical. It counts as biochemical. The following applies: NDM-1 enzyme, CCF2-FA substrate; read-out: NDM-1 IC50.
Sequence of NDM-1 (C7C422 whole entry, looked up, species assumed): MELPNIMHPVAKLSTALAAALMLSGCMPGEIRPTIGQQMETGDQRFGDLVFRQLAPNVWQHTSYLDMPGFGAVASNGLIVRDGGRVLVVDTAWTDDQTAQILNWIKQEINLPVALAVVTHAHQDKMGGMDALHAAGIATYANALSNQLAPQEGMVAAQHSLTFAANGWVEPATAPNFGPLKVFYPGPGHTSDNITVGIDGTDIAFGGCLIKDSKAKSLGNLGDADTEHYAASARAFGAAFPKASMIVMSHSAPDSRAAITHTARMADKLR
Where [4] appears, read: VIM-1 enzyme, read-out: VIM-1 IC50.

With `NS(=O)(=O)c1c(C(F)(F)F)ccc([C@H]2CC[C@H](NC3CCNCC3)CC2)c1-c1nnn[nH]1` [Example 698, 3-[4-(piperidin-4-ylamino)cyclohexyl]-2-(1H-tetrazol-5-yl)-6-(trifluoromethyl)benzene sulfonamide], the values for the IC50 on VIM-1 (setting [4]), at IMP-1 and on NDM-1 were 6.52 nM, 29.6 nM and 10 nM, respectively. Moreover, in experiment [1], the “Serratia marcescens MITC95” value was 3.125 µM. For the same molecule, in experiment [2], the “Escherichia coli MITC95” value came out at 0.7813 µM. For the same molecule, in experiment [3], the “Klebsiella pneumoniae MITC95” value turned out to be 3.125 µM.
Turning to `NCC1CCC(N[C@H]2CC[C@H](c3ccc(C(F)(F)F)c(S(N)(=O)=O)c3-c3nnn[nH]3)CC2)CC1` (stereo partly drawn) [Example 699, 3-(4-{[4-(aminomethyl)cyclohexyl]amino}cyclohexyl)-2-(1H-tetrazol-5-yl)-6-(trifluoromethyl)benzene sulfonamide], the figures for the IC50 at VIM-1 (setting [4]), on IMP-1 and on NDM-1 were 4.72 nM, 58.8 nM and 18 nM, respectively. For the same molecule, the “Serratia marcescens MITC95” value in experiment [1] stood at 6.25 µM. In addition, the “Escherichia coli MITC95” value in experiment [2] is 3.125 µM. Further, the “Klebsiella pneumoniae MITC95” value in experiment [3] amounted to 6.25 µM.
With `NCCN[C@H]1CC[C@H](c2ccc(C(F)(F)F)c(S(N)(=O)=O)c2-c2nnn[nH]2)CC1` [Example 700, 3-{4-[(2-aminoethyl)amino]cyclo-hexyl}-2-(1H-tetrazol-5-yl)-6-(trifluoromethyl)benzene sulfonamide], the IC50 (usually the midpoint of a concentration-inhibition curve) against VIM-1 (VIM-1 IC50, VIM-1 enzyme) came to 0.958 nM; at IMP-1, 16.7 nM; at NDM-1 it was 3.94 nM. The “Serratia marcescens MITC95” value in experiment [1] came to 3.125 µM. In addition, the “Escherichia coli MITC95” value in experiment [2] is 0.3906 µM. Also, the “Klebsiella pneumoniae MITC95” value in experiment [3] turned out to be 1.563 µM.
As to `NC1CCC(N[C@H]2CC[C@H](c3ccc(C(F)(F)F)c(S(N)(=O)=O)c3-c3nnn[nH]3)CC2)CC1` (stereo partly drawn) [Example 701, 3-{4-[(4-aminocyclohexyl)amino]cyclohexyl}-2-(1H-tetrazol-5-yl)-6-(trifluoromethyl)benzene sulfonamide], the IC50 at VIM-1 (VIM-1 IC50, VIM-1 enzyme) turned out to be 12.7 nM; on IMP-1 it was 62.9 nM; at NDM-1, 15.4 nM. Moreover, in experiment [1], the “Serratia marcescens MITC95” value came out at 3.125 µM. In addition, the “Escherichia coli MITC95” value in experiment [2] was found to be 0.7813 µM. Further, the “Klebsiella pneumoniae MITC95” value in experiment [3] was 6.25 µM.
In the case of `NC1CC(N[C@H]2CC[C@H](c3ccc(C(F)(F)F)c(S(N)(=O)=O)c3-c3nnn[nH]3)CC2)C1` (stereo partly drawn) [Example 702, 3-{4-[(3-aminocyclobutyl)amino]cyclohexyl}-2-(1H-tetrazol-5-yl)-6-(trifluoromethyl)benzene sulfonamide], the IC50 at VIM-1 (VIM-1 IC50, VIM-1 enzyme) worked out at 2.25 nM; on IMP-1, 25.2 nM; on NDM-1, 4.02 nM. Also, the “Serratia marcescens MITC95” value in experiment [1] came out at 3.125 µM. The “Escherichia coli MITC95” value in experiment [2] was 0.7813 µM. In addition, the “Klebsiella pneumoniae MITC95” value in experiment [3] turned out to be 1.563 µM.
Consider `NC1CCC(N[C@H]2CC[C@H](c3ccc(C(F)(F)F)c(S(N)(=O)=O)c3-c3nnn[nH]3)CC2)C1` (stereo partly drawn) [Example 703, 3-{4-[(3-aminocyclopentyl)amino]cyclohexyl}-2-(1H-tetrazol-5-yl)-6-(trifluoromethyl)benzene sulfonamide], for which the IC50 came to 8.38 nM on VIM-1 (VIM-1 IC50, VIM-1 enzyme); 38 nM on IMP-1; 6.14 nM on NDM-1. Also, the “Serratia marcescens MITC95” value in experiment [1] was 3.125 µM. The “Escherichia coli MITC95” value in experiment [2] is 0.3906 µM. The “Klebsiella pneumoniae MITC95” value in experiment [3] worked out at 12.5 µM.
In the case of `NCC1CCC(N[C@H]2CC[C@H](c3ccc(C(F)(F)F)c(S(N)(=O)=O)c3-c3nnn[nH]3)CC2)CC1` (stereo partly drawn) [Example 704, 3-(4-{[4-(aminomethyl)cyclohexyl]amino}cyclohexyl)-2-(1H-tetrazol-5-yl)-6-(trifluoromethyl)benzene sulfonamide], the IC50 is 7.17 nM at VIM-1 (setting [4]), 51.6 nM at IMP-1 and 14.8 nM at NDM-1. Also, the “Serratia marcescens MITC95” value in experiment [1] worked out at 6.25 µM. Moreover, the “Escherichia coli MITC95” value in experiment [2] worked out at 1.563 µM. In experiment [3], the “Klebsiella pneumoniae MITC95” value is 6.25 µM.
As for `NCCC1CCC(N[C@H]2CC[C@H](c3ccc(C(F)(F)F)c(S(N)(=O)=O)c3-c3nnn[nH]3)CC2)CC1` (stereo partly drawn) [Example 705, 3-(4-{[4-(2-aminoethyl)cyclohexyl]a-mino}cyclohexyl)-2-(1H-tetrazol-5-yl)-6-(trifluoromethyl)benzene sulfonamide], the results for the IC50 at VIM-1 (setting [4]), at IMP-1 and at NDM-1 were 5.7 nM, 61.1 nM and 18.2 nM, respectively. Also, in experiment [1], the “Serratia marcescens MITC95” value is 4.688 µM. In addition, the “Escherichia coli MITC95” value in experiment [2] came to 2.344 µM. The “Klebsiella pneumoniae MITC95” value in experiment [3] was found to be 12.5 µM.
Turning to `NS(=O)(=O)c1c(C(F)(F)F)ccc(-c2cnc(N3CCNCC3)nc2)c1-c1nnn[nH]1` [Example 706, 3-(2-piperazin-1-ylpyrimidin-5-yl)-2-(1H-tetrazol-5-yl)-6-(trifluoromethyl)benzenesulfon-amide], the IC50 on VIM-1 (VIM-1 IC50, VIM-1 enzyme) came to 0.632 nM; on IMP-1, 12.4 nM; on NDM-1 it was 4.52 nM. Also, the “Serratia marcescens MITC95” value in experiment [1] stood at 6.25 µM. In addition, in experiment [2], the “Escherichia coli MITC95” value was found to be 3.125 µM. Moreover, the “Klebsiella pneumoniae MITC95” value in experiment [3] came to 1.563 µM.
`NCCc1ccc(-c2ccc(C(F)(F)F)c(S(N)(=O)=O)c2-c2nnn[nH]2)cc1` [Example 707, 4′-(2-aminoethyl)-2-(1H-tetrazol-5-yl)-4-(trifluoromethyl)biphenyl-3-sulfonamide]: the IC50 on VIM-1 (setting [4]) was found to be 0.249 nM; on IMP-1 it was 6.67 nM; at NDM-1, 5.59 nM. Moreover, the “Serratia marcescens MITC95” value in experiment [1] stood at 6.25 µM. The “Escherichia coli MITC95” value in experiment [2] is 3.125 µM. Besides, in experiment [3], the “Klebsiella pneumoniae MITC95” value is 1.563 µM.
In the case of `NS(=O)(=O)c1c(C(F)(F)F)ccc(-c2cnc3[nH]ccc3c2)c1-c1nnn[nH]1` [Example 708, 3-(1H-pyrrolo[2,3-b]pyridin-5-yl)-2-(1H-tetrazol-5-yl)-6-(trifluoromethyl)benzenesulfon-amide], the IC50 came to 0.144 nM on VIM-1 (setting [4]), 1.6 nM on IMP-1 and 0.38 nM at NDM-1. Besides, the “Serratia marcescens MITC95” value in experiment [1] is 6.25 µM. For the same molecule, the “Escherichia coli MITC95” value in experiment [2] worked out at 1.563 µM. Further, the “Klebsiella pneumoniae MITC95” value in experiment [3] was determined as 6.25 µM.
In the case of `NS(=O)(=O)c1c(C(F)(F)F)ccc(-c2snc3ncccc23)c1-c1nnn[nH]1` [Example 709, 3-isothiazolo[3,4-b]pyridin-3-yl-2-(1H-tetrazol-5-yl)-6-(trifluoromethyl)benzenesulfon-amide], the results for the IC50 on VIM-1 (setting [4]), at IMP-1 and at NDM-1 were 0.289 nM, 16.4 nM and 6.58 nM, respectively. Moreover, in experiment [1], the “Serratia marcescens MITC95” value came out at 25 µM. The “Escherichia coli MITC95” value in experiment [2] came to 6.25 µM. In experiment [3], the “Klebsiella pneumoniae MITC95” value amounted to 6.25 µM.
For the molecule `NS(=O)(=O)c1c(C(F)(F)F)ccc(-c2cnn3ccccc23)c1-c1nnn[nH]1` [Example 710, 3-pyrazolo[1,5-a]pyridin-3-yl-2-(1H-tetrazol-5-yl)-6-(trifluoromethyl)benzenesulfon-amide], the IC50 at VIM-1 (VIM-1 IC50, VIM-1 enzyme) stood at 0.168 nM; on IMP-1, 2.08 nM; on NDM-1, 0.89 nM. Also, in experiment [1], the “Serratia marcescens MITC95” value was 6.25 µM. Also, in experiment [2], the “Escherichia coli MITC95” value amounted to 6.25 µM. Also, the “Klebsiella pneumoniae MITC95” value in experiment [3] was 12.5 µM.
As for `NS(=O)(=O)c1c(C(F)(F)F)ccc(-c2cnc3ccoc3c2)c1-c1nnn[nH]1` [Example 711, 3-furo[3,2-b]pyridin-6-yl-2-(1H-tetrazol-5-yl)-6-(trifluoromethyl)benzenesulfon-amide], the results for the IC50 on VIM-1 (setting [4]), at IMP-1 and at NDM-1 were 0.224 nM, 3.54 nM and 1.01 nM, respectively. Besides, the “Serratia marcescens MITC95” value in experiment [1] stood at 12.5 µM. Further, the “Escherichia coli MITC95” value in experiment [2] amounted to 6.25 µM. The “Klebsiella pneumoniae MITC95” value in experiment [3] was determined as 6.25 µM.
For `NS(=O)(=O)c1c(C(F)(F)F)ccc(-c2cnc3ncccn23)c1-c1nnn[nH]1` [Example 712, 3-imidazo[1,2-a]pyrimidin-3-yl-2-(1H-tetrazol-5-yl)-6-(trifluoromethyl)benzenesulfon-amide], the IC50 against VIM-1 (VIM-1 IC50, VIM-1 enzyme) came to 13.6 nM; on IMP-1 it was 126 nM; at NDM-1, 58.7 nM. Also, the “Serratia marcescens MITC95” value in experiment [1] amounted to 100 µM. Also, the “Escherichia coli MITC95” value in experiment [2] came to 25 µM. In addition, in experiment [3], the “Klebsiella pneumoniae MITC95” value was 50 µM.
`NS(=O)(=O)c1c(C(F)(F)F)ccc(-c2ccc(C3CNCCO3)cc2)c1-c1nnn[nH]1` (stereo not drawn) [Example 713, 4′-morpholin-2-yl-2-(1H-tetrazol-5-yl)-4-(trifluoromethyl)biphenyl-3-sulfonamide]: the IC50 on VIM-1 (setting [4]) stood at 0.819 nM; at IMP-1 it was 3.54 nM; at NDM-1, 3.27 nM. Moreover, in experiment [1], the “Serratia marcescens MITC95” value was determined as 6.25 µM. For the same molecule, the “Escherichia coli MITC95” value in experiment [2] is 3.125 µM. The “Klebsiella pneumoniae MITC95” value in experiment [3] came out at 3.125 µM.
As to `Nc1cc(-c2ccc(C(F)(F)F)c(S(N)(=O)=O)c2-c2nnn[nH]2)cc(N)n1` [Example 714, 3-(2,6-diaminopyridin-4-yl)-2-(1H-tetrazol-5-yl)-6-(trifluoromethyl)benzenesulfon-amide], the IC50 on VIM-1 (VIM-1 IC50, VIM-1 enzyme) was found to be 0.799 nM; on IMP-1 it was 31.7 nM; at NDM-1 it was 5.05 nM. The “Serratia marcescens MITC95” value in experiment [1] is 12.5 µM. Besides, the “Escherichia coli MITC95” value in experiment [2] is 1.563 µM. For the same molecule, in experiment [3], the “Klebsiella pneumoniae MITC95” value is 3.125 µM.
